Assay results: patent publication US20230135029A1, “COMPOSITIONS AND METHODS FOR INCREASING DIGESTIBILITY OF CALCIUM AND PHOSPHOROUS IN PIGS” (Premex, Inc., priority 2020, published 2023)
“Also recorded” adds a separate entry of the source.

Tested on: late gestating sows
Test: Calcium, phosphorus and energy balance / apparent total tract digestibility (ATTD) study in late gestating sows fed diets with supplemental 1-α-OH-D3
Assay type: in vivo, pig
Conditions: for ATTD of Ca / ATTD of Dry Matter / ATTD of P / ATTD of gross energy / Absorbed Ca / Absorbed P / Fecal Ca output / Fecal P output / Fecal excretion / Urine Ca output / Urine P output: 12.5 mg/kg diet; for fecal P output, in words / urine P output, in words: vs no supplement
Text: Thirty six gestating sows were allotted to three blocks of twelve sows using a randomized complete block design. Four diets were fed to the twelve sows in each block. Thus, there were a total of nine replicate sows per diet. Sows were fed experimental diets from day 91 to 105 of gestation and were housed individually in metabolism crates during this period. Metabolism crates were equipped with a feeder, a nipple drinker, and fully slatted T-bar floors. A screen floor and a urine pan were installed below the T-bar floors to allow for collection of feces and urine, respectively. The initial five days of each period in the metabolism crates were considered the adaptation period to the diets followed by four days of fecal collection using the marker to marker procedure (Adeola, O. 2001. Digestion and balance techniques in pigs. In: A. J. Lewis and L. L. Southern, editors, Swine Nutrition. CRC Press, Washington, D.C., USA. p. 903-916.). Fecal collection was initiated when the first marker (i.e., indigo carmine) appeared in the feces and ceased when the second marker (i.e., chromic oxide) appeared (Id.). Urine was collected in buckets placed under the urine pans with 50 mL of 3N HCl from day six in the morning until day ten in the morning. Buckets were emptied daily, the weight of the collected urine was recorded, and 10% of the collected urine was stored at −20° C. until subsampling.
Diets were formulated using a 2×2 factorial arrangement with two levels of calcium and phosphorus (i.e., 100% and 75% of the requirement; NRC, 2012) with a constant calcium to phosphorus ratio (See Table 1) without or with supplemental 1-α-OH-D3 (Alpha D3, Premex Inc., NC). The high level of calcium and phosphorus was 100% requirement for late gestation sows. The low level of calcium phosphorus was 75% of requirement for late gestation sows (NRC. 2012. Nutrient requirements of swine. 11th rev. ed. Natl. Acad. Press, Washington, D.C., USA). The corn-1-α-OH-D3 premix provided 12.5 mg Alpha D3 per kg of complete diet; 1,000 g of 1-α-OH-D3 premix was prepared by mixing 417 mg Alpha D3 and 999.583 g ground corn.
The vitamin-micromineral premix provided the following quantities of vitamins and micro minerals per kilogram of complete diet: vitamin A as retinyl acetate, 10,622 IU; vitamin D3 as cholecalciferol, 1,660 IU; vitamin E as […], 66 IU; vitamin K as menadione nicotinamide bisulfate, 1.40 mg; thiamin as thiamine mononitrate, 1.08 mg; riboflavin, 6.49 mg; pyridoxine as pyridoxine hydrochloride, 0.98 mg; vitamin B12, 0.03 mg; D-pantothenic acid as D-calcium pantothenate, 23.2 mg; niacin, 43.4 mg; folic acid, 1.56 mg; biotin, 0.44 mg; Cu, 20 mg as copper chloride; Fe, 123 mg as iron sulfate; I, 1.24 mg as ethylenediamine dihydriodide; Mn, 59.4 mg as manganese hydroxychloride; Se, 0.27 mg as sodium selenite and selenium yeast; and Zn, 124.7 mg as zinc hydroxychloride.
All vitamins and minerals except calcium and phosphorus were included in all diets to meet or exceed nutrient requirements (NRC, 2012). Daily feed allotments were provided in a meal that was fed at 7 AM throughout the experiment. The daily feed allowance was 1.5 times the maintenance energy requirement for gestating sows based on the initial body weight of sows (i.e., 100 kcal ME/kg BW0.75; NRC. 2012. Nutrient requirements of swine. 11th rev. ed. Natl. Acad. Press, Washington, D.C., USA). Water was available at all times.
At the conclusion of the testing, urine samples were thawed and mixed within animal and collection period and subsamples were collected. Fecal samples were stored at −20° C. as soon as collected, and at the conclusion of the experiment, samples were dried at 65° C. in a forced air oven and finely ground through a 1-mm screen before analysis using a Wiley mill (Model 4; Thomas Scientific, Swedesboro, N.J.). […]

[1] = high level of dietary calcium and phosphorus, P<0.05
[2] = low level of dietary calcium and phosphorus
[3] = supplemented vs no supplemental 1-α-OH-D3, main effect, P<0.01
[4] = supplemented vs no supplemental 1-α-OH-D3, regardless of dietary Ca and P levels, P<0.05

SMILES: C=C1/C(=C\C=C2/CCC[C@]3(C)[C@@H]([C@H](C)CCCC(C)C)CC[C@@H]23)C[C@@H](O)C[C@@H]1O [1-α-OH-D3, 1-alpha-hydroxycholecalciferol]
- ATTD of Ca (High Ca and P levels): 30.25%
- ATTD of Dry Matter (High Ca and P levels): 87.72%
- ATTD of P (High Ca and P levels): 34.7%
- ATTD of gross energy (High Ca and P levels): 87.3%
- Absorbed Ca (High Ca and P levels): 6.63 grams/day
- Absorbed P (High Ca and P levels): 5.19 grams/day
- Fecal Ca output (High Ca and P levels): 15.00 grams/day
- Fecal P output (High Ca and P levels): 9.71 grams/day
- Fecal excretion (High Ca and P levels): 0.32 kg dry matter/d
- Urine Ca output (High Ca and P levels): 0.59 grams/day
- Urine P output (High Ca and P levels): 0.99 grams/day
- ATTD of Ca (Low Ca and P levels): 30.49%
- ATTD of Dry Matter (Low Ca and P levels): 88.31%
- ATTD of P (Low Ca and P levels): 29.63%
- ATTD of gross energy (Low Ca and P levels): 87.5%
- Absorbed Ca (Low Ca and P levels): 4.66 grams/day
- Absorbed P (Low Ca and P levels): 3.16 grams/day
- Fecal Ca output (Low Ca and P levels): 10.89 grams/day
- Fecal P output (Low Ca and P levels): 7.67 grams/day
- Fecal excretion (Low Ca and P levels): 0.30 kg dry matter/d
- Urine Ca output (Low Ca and P levels): 0.99 grams/day
- Urine P output (Low Ca and P levels): 0.12 grams/day
- fecal P output, in words [1]: decreased
- urine P output, in words [1]: decreased
- fecal P output, in words [2]: no difference
- urine P output, in words [2]: no difference
- ATTD of dry matter, in words (supplemented vs no supplemental 1-α-OH-D3, main effect): greater
- fecal excretion, in words (supplemented vs no supplemental 1-α-OH-D3, main effect over both Ca and P levels, P<0.05): less
- ATTD of calcium, in words [3]: greater; also recorded: increased
- ATTD of gross energy, in words [3]: increases
- Fecal calcium output, in words [3]: less
- absorbed calcium, in words [3]: greater
- calcium retention, in words [3]: greater; also recorded: increased
- concentration of digestible energy in diets, in words [3]: increases
- urine calcium outputs, in words [3]: increased
- ATTD of phosphorus, in words [4]: greater; also recorded: increased
- absorbed phosphorus, in words [4]: greater
- phosphorus retention, in words [4]: greater; also recorded: increased
